For five compounds, Activity, IC50 and Ratio Ki results are on record in ChEMBL document CHEMBL5532741, “Novel 2,4-Dichloro-5-sulfamoylbenzoic Acid Oxime Esters: First Studies as Potential Human Carbonic Anhydrase Inhibitors” (ACS Med Chem Lett, 2024).

Test [1] has as its system MDA-MB-231. As to the kind of experiment: Antiproliferative activity against human MDA-MB-231 cells at high concentration measured after 72 hrs by cell counting kit 8 method. Format: functional, cell-based. For orientation: Tetrazolium dyes change colour on reduction, which living cells bring about.
In test [2] the test system is MDA-MB-231. As to the kind of experiment: Antiproliferative activity against human MDA-MB-231 cells measured after 72 hrs by cell counting kit 8 method. Format: functional, cell-based. The following applies: MDA-MB-231, 72 h.
Test [3] is filed under the species Homo sapiens. The test can be described thus: Selectivity index, ratio of Ki for recombinant human CA9 to Ki for recombinant human CA2.
Test [4] is filed under the species Homo sapiens. As to the kind of experiment: Selectivity index, ratio of Ki for recombinant human CA12 to Ki for recombinant human CA2.

Activity calls are given as the source filed them. No cut-off for these calls is given here.

For `NS(=O)(=O)c1cc(C(=O)O/N=C/c2ccccc2)c(Cl)cc1Cl`, the outcome in test [1] was inactive.

One may read the IC50 as the concentration needed to halve the response being measured. Lower therefore signals greater potency. Turning to `COc1ccc(/C=N/OC(=O)c2cc(S(N)(=O)=O)c(Cl)cc2Cl)c(OC)c1OC`, the IC50 in test [2] stood at 113 µM.

As to `NS(=O)(=O)c1ccc(NC(=O)Nc2ccc(F)cc2)cc1` [SLC-0111], in test [2], the IC50 turned out to be 18.2 µM.

For `COc1cccc(OC)c1/C=N/OC(=O)c1cc(S(N)(=O)=O)c(Cl)cc1Cl`, in test [2], the IC50 came out at 108 µM.

As for `NS(=O)(=O)c1cc(C(=O)O)c(Cl)cc1Cl`, the values for the Ratio Ki in test [3] and in test [4] were 7.9 and 22.7, respectively.
